Experiment: Sensory evaluation of sweetness and mouthfeel of solutions in sucrose base solution (Example II)
Format: in vivo
Settings: in sucrose base solution (4% in water), sucrose 1.5%, Reb-A 30 ppm, sucralose 20 ppm, rubusoside 45 ppm, Preparations at total rubusoside 45 ppm; for Mouthfeel: averaged score of 0 to 10 (0=none, 1=barely detectable, 2=weak, 4=weak-moderate, 6=moderate, 8=moderate-strong, 10=extremely strong); for Sweetness: averaged score of 0 to 10 (0=none, 10=extremely strong)
Experimental: Isosweet solutions of sucrose (1.5%), rebaudioside A (“Reb-A”) (30 ppm), sucralose (20 ppm) and rubusoside (45 ppm) were prepared in a sucrose base solution (4% in water). Additional solutions of the transglucosylated R. suavissimus extract prepared with different rubusoside transglucosylation rates including Preparation I, II and III (prepared as above in EXAMPLE I) were also prepared, wherein the total rubusoside concentrations were equalized to 45 ppm.
Sweetness and mouthfeel of the obtained solutions were evaluated using a score of 0 to 10, where 0=none, 1=barely detectable, 2=weak, 4=weak-moderate, 6=moderate, 8=moderate-strong and 10=extremely strong.

Row | SMILES | Mouthfeel | Sweetness
1 | C=C1C[C@@]23CC[C@H]4[C@@](C)(CCC[C@@]4(C)C(=O)O[C@@H]4O[C@H](CO)[C@@H](O)[C@H](O)[C@H]4O)[C@@H]2CC[C@]1(O[C@@H]1O[C@H](CO)[C@@H](O)[C@H](O[C@@H]2O[C@H](CO)[C@@H](O)[C@H](O)[C@H]2O)[C@H]1O[C@@H]1O[C@H](CO)[C@@H](O)[C@H](O)[C@H]1O)C3 [Reb-A, rebaudioside A] | 3 | 5
2 | C=C1C[C@@]23CC[C@H]4[C@@](C)(CCC[C@@]4(C)C(=O)O[C@@H]4O[C@H](CO)[C@@H](O)[C@H](O)[C@H]4O)[C@@H]2CC[C@]1(O[C@@H]1O[C@H](CO)[C@@H](O)[C@H](O)[C@H]1O)C3 [Rubusoside, rubusoside] | 4 | 5
3 | OC[C@H]1O[C@H](O[C@]2(CCl)O[C@H](CCl)[C@@H](O)[C@@H]2O)[C@H](O)[C@@H](O)[C@H]1Cl [Sucralose, sucralose] | 3 | 5
4 | OC[C@H]1O[C@@](CO)(O[C@H]2O[C@H](CO)[C@@H](O)[C@H](O)[C@H]2O)[C@@H](O)[C@@H]1O [Sucrose, sucrose] | 7 | 5

Source: patent US20160183577A1, “Transglucosylated Rubus suavissimus Extract and Methods of Preparation and Use” (INTERNATIONAL FLAVORS & FRAGRANCES INC., priority 2014, published 2016)
